Measurements reported in patent publication US12533373B2, “β-glucan composition and use therefor” (Qingdao Conson Pharmaceutical Co., Ltd., priority 2019, dated 2026).
Several values for one entry are separate records, joined by “and”; a condition that tells them apart may be missing. Equal values may be shown once.

Assays:
[1] = tested on: SW-480 human colon cancer transplanted tumors; assay: nude mice transplanted tumor model, SW-480; assay type: in vivo, BALB/c nude mice; settings: 5-FU 18 mg/kg, tail vein, twice a week
Description: The […] was resuscitated with liquid nitrogen and cultured in 5A medium containing 10% fetal bovine serum; the cells were expanded and cultured in culture flasks and collected by digestion after reaching the required cells number; the cells were diluted using 5A medium containing 10% fetal bovine serum into suspensions of 250 million cell/ml which was inoculated subcutaneously to the axilla of the right forelimb of each mouse with 0.2 ml per mouse after routine sterilization. When growing to tumors to about 1 g of tissue mass, the animal was sacrificed and the tumor was cut into 2-3 cubic millimeter pieces and implanted subcutaneously into nude mice for passaging by catheter method, and two consecutive passages were performed. HT-29, SW-480, DLD-1 and RKO cell lines listed in the table were modeled and experimented using the same method. Waiting for the tumors of the passaged tumor-bearing nude mice grown to about 1 g, the tumors were transplanted for modeling via the method described above, and the animals were randomly grouped and administration was started on the next day after transplantation.
The animals were grouped using the random grouping method, 8 animals each group.
The route of administration is via tail vein injection, and the amount of administration for each animal was determined based on the latest body weight prior to administration. […]

[2] = tested on: Mouse lung cancer Lewis cells; assay: mouse Lewis lung cancer residual cancer model; assay type: in vivo, C57BL/6 mice; settings: 5-FU 18 mg/kg
Description: Mouse lung cancer Lewis cells were amplified by culturing in DMEM high sugar medium containing 10% FBS. The cells were ready for the next step when entering the logarithmic growth phase. The cells at logarithmic growth phase were collected by centrifugation and counted. The cell concentration was adjusted and inoculated subcutaneously at 0.2 ml/mouse in the right axilla of C57BL/6 mice as breeder mouse. After grew to over 1000 mm^3, the tumors were removed aseptically, weighed, diluted by adding sodium chloride injection with mass to volume ratio of 1:4 and […], after conventional sterilization, inoculated subcutaneously to the axilla of the right forelimb of each mouse with 0.2 ml per mouse for passaging. After grew to over 1000 mm^3, the second generation tumors were taken aseptically, weighed, diluted by adding sodium chloride injection with mass to volume ratio of 1:4 and ground, and then inoculated subcutaneously to the back of mice at 0.2 ml per mouse after routine sterilization. The growths of mice were observed after inoculation, and screened according to the growth state of mice, and after screening, the mice were grouped randomly and administered.

[3] = tested on: S180 mouse fibrosarcoma cells; assay: murine S180 sarcoma residual carcinoma model; assay type: in vivo, Kunming mice; settings: 5-FU 18 mg/kg
Description: S180 mouse fibrosarcoma cells were amplified by culturing in DMEM high sugar medium containing 10% FBS. The cells were ready for the next step when entering the logarithmic growth phase. The cells at logarithmic growth phase were collected by centrifugation and counted. The cell concentration was adjusted, and inoculated at 0.2 ml/mouse into the peritoneal cavity of Kunming mice as the first-generation breeder mouse. After rearing for one week, the ascites in peritoneal cavity of the first-generation breeder mouse were taken for centrifugation and count, the cell concentration was adjusted, and inoculated at 0.2 ml/mouse into the peritoneal cavity of Kunming mice as the second-generation breeder mouse, and after rearing for another week, the ascites in peritoneal cavity of the second-generation breeder mouse were taken for centrifugation and count, the cell concentration was adjusted, and inoculated at 0.2 ml/mouse into subcutaneous back of Kunming mice. The whole inoculation process was carried out aseptically in the ultra-clean workstation. After inoculation, the growth of mice was observed, and the mice were screened according to their growth state, and after screening, the mice were grouped randomly and administered.

SMILES: O=c1[nH]cc(F)c(=O)[nH]1 [Example 5-FU, Fluorouracil]
- Inhibition rate [1]: 57.91%
- Tumor weight [1]: 0.43 g
- Tumor weight [2]: 1.29 g and 1.24 g
- Inhibition rate [3]: 85.30% and 66.85%
